Data as given in patent US11261186B2, “Biaryl derivative as GPR120 agonist” (LG CHEM, LTD., priority 2014, dated 2022).
pEC50: −log10 of the molar value.

Target: T1, hGPR120 (Homo sapiens, UniProt Q5NUL3)
T1 construct: expressed in transfected cells; host or cells: CHO-K1
T1 sequence (Q5NUL3 1-361): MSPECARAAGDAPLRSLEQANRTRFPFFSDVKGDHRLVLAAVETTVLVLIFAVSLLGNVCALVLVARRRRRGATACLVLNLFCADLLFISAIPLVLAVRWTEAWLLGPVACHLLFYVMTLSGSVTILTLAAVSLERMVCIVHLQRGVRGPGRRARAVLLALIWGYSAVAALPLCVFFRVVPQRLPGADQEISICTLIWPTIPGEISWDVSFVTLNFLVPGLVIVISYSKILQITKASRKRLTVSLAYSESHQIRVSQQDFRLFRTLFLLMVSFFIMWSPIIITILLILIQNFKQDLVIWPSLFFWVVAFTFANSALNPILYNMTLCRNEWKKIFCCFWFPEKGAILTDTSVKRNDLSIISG
Test: Measurement of Activity of GPR120 Agonist (Cell-Based Assay), Calcium 5 dye fluorescence
Conditions: CHO-K1 cells expressing Ga16 and hGPR120
Experimental: CHO-K1 cells expressing Ga16 and hGPR120 were dispensed into each well of a 96-well plate (3×10^4 cells/100 μl/well) and then incubated in 5% CO2, 37° C. incubator for 18 hours. Each well was treated with 100 μl of Calcium 5 dye (Molecular Devices) solution including 2% DMSO and then incubated in 5% CO2, 37° C. incubator for 1 hour. Serially diluted GPR120 agonists were prepared to a final concentration of 0.5% DMSO in a 96-well plate. Each well was treated with 50 μl of the agonist compounds using Plexstation II, and then fluorescence was measured at Ex 485 nm and Em 525 nm.
Fluorescence increased by the serially diluted GPR120 agonists is calculated as a relative percent (%) value based on the fluorescence represented by the treatment of 1% DMSO only. […] The calculation of measurement was carried out by using statistical software (Prizm).
Activity is denoted based on the following criteria: […]

SMILES | pEC50
O=C(O)CCCOc1c(F)cc(-c2cncc(OC3CCC3)n2)cc1Cl [Example 430, 4-[2-chloro-4-(6-cyclobutoxy-pyrazin-2-yl)-6-fluoro-phenoxy]-butyric acid] | > 6.70
Oc1ccc(COc2c(F)cc(-c3cccnc3OC3CCCC3)cc2F)cn1 [Example 79, 5-[[4-[2-(cyclopentoxy)-3-pyridyl]-2,6-difluoro-phenoxy]methyl]pyridin-2-ol] | 4.70 to 5.70
O=C(O)CC1CCN(c2c(F)cc(-c3cccc4c3OC(F)(F)O4)cc2F)CC1 [Example 439, {1-[4-(2,2-difluoro-benzo[1,3]dioxol-4-yl)-2,6-difluoro-phenyl]-piperidin-4-yl}-acetic acid] | 5.70 to 6.70
O=C(O)CCCCc1c(F)cc(-c2cccnc2OCC2CCC2)cc1F [Example 250, 5-[4-(2-cyclobutylmethoxy-pyridin-3-yl)-2,6-difluoro-phenyl]-pentanoic acid] | > 6.70
O=C(O)CC1CCN(c2c(F)cc(-c3cncc(NC4CCCC4)n3)cc2F)CC1 [Example 357, 2-[1-[4-[6-(cyclopentylamino)pyrazin-2-yl]-2,6-difluoro-phenyl]-4-piperidyl]acetic acid] | 5.70 to 6.70
CCOc1ccnc(-c2cc(F)c(N3CCC(CC(=O)O)CC3)c(F)c2)n1 [Example 345, 2-[1-[4-(4-ethoxypyrimidin-2-yl)-2,6-difluoro-phenyl]-4-piperidyl]acetic acid] | > 6.70
O=C(O)CC1CCN(c2c(F)cc(-c3nccc(OCC4CC4)n3)cc2F)C1 (stereo not shown) [Example 581, {1-[4-(4-cyclopropylmethoxy-pyrimidin-2-yl)-2,6-difluoro-phenyl]-pyrrolidin-3-yl}-acetic acid] | > 6.70
CCN(CC)c1cncc(-c2cc(F)c(N3CCC(CC(=O)O)CC3)c(F)c2)n1 [Example 355, 2-[1-[4-[6-(diethylamino)pyrazin-2-yl]-2,6-difluoro-phenyl]-4-piperidyl]acetic acid] | 4.70 to 5.70
CC(CCCC(=O)O)c1c(F)cc(-c2cccnc2OC2COC2)cc1F (stereo not shown) [Example 232, 5-{2,6-difluoro-4-[2-(oxetan-3-yloxy)-pyridin-3-yl]-phenyl}-hexanoic acid] | 5.70 to 6.70
O=C(O)CC1CCN(c2c(F)cc(-c3cccc4sc(-c5ccc(F)cc5)cc34)cc2F)CC1 [Example 615, (1-{2,6-difluoro-4-[2-(4-fluoro-phenyl)-benzo[b]thiophen-4-yl]-phenyl}-piperidin-4-yl)-acetic acid] | 4.70 to 5.70
CC(C)Cc1cncc(-c2cc(F)c(N3CCC(CC(=O)O)CC3)c(F)c2)n1 [Example 364, 2-[1-[2,6-difluoro-4-(6-isobutylpyrazin-2-yl)phenyl]-4-piperidyl]acetic acid] | 5.70 to 6.70
CN(CCCC(=O)O)c1c(F)cc(-c2cccc(OC3CCCC3)c2)cc1F [Example 525, 4-[(3′-cyclopentyloxy-3,5-difluoro-biphenyl-4-yl)-methyl-amino]-butyric acid] | > 6.70
CN(CCCC(=O)O)c1c(F)cc(-c2csc(OC3CCC3)n2)cc1F [Example 486, 4-[4-[2-(cyclobutoxy)thiazol-4-yl]-2,6-difluoro-N-methyl-anilino]butanoic acid] | > 6.70
O=C(O)CCCOc1c(F)cc(-c2nccc(OC3CCC3)n2)cc1F [Example 420, 4-[4-(4-cyclobutoxy-pyrimidin-2-yl)-2,6-difluoro-phenoxy]-butyric acid] | > 6.70
CC(C)Oc1cncc(-c2cc(F)c(N3CCC(CC(=O)O)C3)c(F)c2)n1 (stereo not shown) [Example 586, {1-[2,6-difluoro-4-(6-isopropoxy-pyrazin-2-yl)-phenyl]-pyrrolidin-3-yl}-acetic acid] | > 6.70
CC(C)COc1ccnc(-c2cc(F)c(N3CCC(CC(=O)O)C3)c(F)c2)n1 (stereo not shown) [Example 502, 2-{1-[2,6-difluoro-4-(4-isobutoxy-pyrimidin-2-yl)phenyl]pyrrolidin-3-yl}acetic acid] | 5.70 to 6.70
O=C(O)CCC1CC1c1c(F)cc(-c2cccnc2OC2CCC2)cc1F (stereo not shown) [Example 188, 3-{2-[4-(2-cyclobutoxy-pyridin-3-yl)-2,6-difluoro-phenyl]-cyclopropyl}-propanoic acid] | > 6.70
O=C(O)CC1CCN(c2c(F)cc(-c3nc(OC4CCC4)cs3)cc2F)CC1 [Example 379, {1-[4-(4-cyclobutoxy-thiazol-2-yl)-2,6-difluoro-phenyl]-piperidin-4-yl}acetic acid] | > 6.70
O=C(O)CCCCc1ccc(-c2cccnc2SC2CCC2)cc1F [Example 249, 5-[4-(2-cyclobutylsulfanyl-pyridin-3-yl)-2-fluoro-phenyl]-pentanoic acid] | > 6.70

SMILES | pEC50
Oc1cc(COc2c(F)cc(-c3cccnc3SC3CCC3)cc2F)on1 [Example 61, 5-[[4-(2-cyclobutylsulfanyl-3-pyridyl)-2,6-difluoro-phenoxy]methyl]isoxazol-3-ol] | > 6.70
O=C(O)CC1CCN(c2c(F)cc(-c3nccc(OC4CCC4)n3)cc2F)C1 (stereo not shown) [Example 579, {1-[4-(4-cyclobutoxy-pyrimidin-2-yl)-2,6-difluoro-phenyl]-pyrrolidin-3-yl}-acetic acid] | > 6.70
O=C(O)CCCOc1c(F)cc(-c2cccc(OCC3CCC3)c2)cc1F [Example 521, 4-(3′-cyclobutylmethoxy-3,5-difluoro-biphenyl-4-yloxy)-butyric acid] | > 6.70
COc1ccc(-c2cc(F)c(OCCCC(=O)O)c(F)c2)nc1OCC1CC1 [Example 459, 4-[4-[6-(cyclopropylmethoxy)-5-methoxy-2-pyridyl]-2,6-difluoro-phenoxy]butanoic acid] | > 6.70
O=C(O)CCC1CCc2cc(-c3cncc(OC4CCC4)n3)ccc2S1 (stereo not shown) [Example 507, 3-[6-(6-cyclobutoxy-pyrazin-2-yl)-thiochroman-2-yl]-propionic acid] | 5.70 to 6.70
Cc1ccc(Oc2ccnc(-c3cc(F)c(N4CCC(CC(=O)O)CC4)c(F)c3)n2)cc1 [Example 516, 2-[1-[4-[4-(p-tolyloxy)pyrimidin-2-yl]-2,6-difluoro-phenyl]-4-piperidyl]acetic acid] | > 6.70
O=C(O)CC1CCN(c2c(F)cc(-c3ccc(F)c(OC4CCC4)c3)cc2F)CC1 [Example 304, 2-[1-[4-[3-(cyclobutoxy)-4-fluoro-phenyl]-2,6-difluoro-phenyl]-4-piperidyl]acetic acid] | 5.70 to 6.70
COC(c1cccc(-c2cc(F)c(N3CCC(CC(=O)O)CC3)c(F)c2)n1)C1CC1 (stereo not shown) [Example 318, 2-[1-[4-[6-[cyclopropyl(methoxy)methyl]-2-pyridyl]-2,6-difluoro-phenyl]-4-piperidyl]acetic acid] | 4.70 to 5.70
Cc1cc(OC2CCC2)nc(-c2cc(F)c(OCCCC(=O)O)c(F)c2)n1 [Example 425, 4-[4-(4-cyclobutoxy-6-methyl-pyrimidin-2-yl)-2,6-difluoro-phenoxy]-butyric acid] | > 6.70
O=C(O)C1CC1COc1c(F)cc(-c2cccc(OC3CCC3)n2)cc1Cl (stereo not shown) [Example 554, 2-[2-chloro-4-(6-cyclobutoxy-pyridin-2-yl)-6-fluoro-phenoxymethyl]-cyclopropanecarboxylic acid] | > 6.70
CC(C)Sc1cccc(-c2cc(F)c(N3CCC4(CC3)CC4C(=O)O)c(F)c2)n1 (stereo not shown) [Example 111, 6-[2,6-difluoro-4-(6-isopropylsulfanyl-2-pyridyl)phenyl]-6-azaspiro[2.5]octan-2-carboxylic acid] | 4.70 to 5.70
O=C(O)CCCOc1ccc(-c2cccnc2OCC2CC2)cc1F [Example 240, 4-[4-(2-cyclopropylmethoxy-pyridin-3-yl)-2-fluoro-phenoxy]-butyric acid] | 5.70 to 6.70
CC(CCCC(=O)O)c1c(F)cc(-c2cccc3c2OC2(CCCC2)O3)cc1F (stereo not shown) [Example 450, 5-(2,6-difluoro-4-spiro[1,3-benzodioxol-2,1′-cyclopentan]-4-yl-phenyl)hexanoic acid] | > 6.70
O=C(O)CCCC1(c2c(F)cc(-c3cccnc3OC3CCCC3)cc2F)CC1 [Example 166, 4-{1-[4-(2-cyclopentyloxy-pyridin-3-yl)-2,6-difluoro-phenyl]-cyclopropyl}-butyric acid] | > 6.70
O=C(O)C[C@H]1CCN(c2c(F)cc(-c3cccnc3OC3CCCC3)cc2F)C1 [Example 135, 2-[(3R)-1-[4-[2-(cyclopentoxy)-3-pyridyl]-2,6-difluoro-phenyl]pyrrolidin-3-yl]acetic acid] | > 6.70
CC(C)Sc1ncccc1-c1cc(F)c(NCCCCC(=O)O)c(F)c1 [Example 97, 5-[2,6-difluoro-4-(2-isopropylsulfanyl-3-pyridyl)anilino]pentanoic acid] | > 6.70
COc1ccc2c(ccn2-c2cc(F)c(OCCCC(=O)O)c(F)c2)c1 [Example 468, 4-[2,6-difluoro-4-(5-methoxyindol-1-yl)phenoxy]butanoic acid] | > 6.70
CC(C)Sc1cccc(-c2cc(F)c(-n3cc(CC(=O)O)cn3)c(F)c2)n1 [Example 123, 2-[1-[2,6-difluoro-4-(6-isopropylsulfanyl-2-pyridyl)phenyl]pyrazol-4-yl]acetic acid] | 5.70 to 6.70
